Test results taken from patent publication US8906826B2, “Herbicidal compositions comprising 4-amino-3-chloro-5-fluoro-6-(4-chloro-2-fluoro-3-methoxyphenyl) pyridine-2-carboxylic acid or a derivative thereof and imidazolinones” (Dow AgroSciences, LLC, priority 2012, dated 2014).

Columns and labels:
CYPRO = test: In-water applied, transplanted paddy rice weeds (Example II); type: in vivo, Cyperus rotundus L.; details: Imazapyr IPA 70 gae/ha
Protocol: Weed seeds or nutlets of the desired test plant species were planted in puddled soil (mud) prepared by mixing a shredded, non-sterilized mineral soil (50.5 percent silt, 25.5 percent clay, and 24 percent sand, with a pH of about 7.6 and an organic matter content of about 2.9 percent) and water at a 1:1 volumetric ratio. The prepared mud was dispensed in 365 mL aliquots into 16-ounce (oz.) non-perforated plastic pots with a surface area of 86.59 square centimeters (cm^2) leaving a headspace of 3 centimeters (cm) in each pot. Mud was allowed to dry overnight prior to planting or transplanting. Rice seeds were planted in Sun Gro MetroMix® 306 planting mixture, which typically has a pH of about 6.0 to about 6.8 and an organic matter content of about 30 percent, in plastic plug trays. Seedlings at the second or third leaf stage of growth were transplanted into 860 mL of mud contained in 32-oz. non-perforated plastic pots with a surface area of 86.59 cm^2 4 days prior to herbicide application. The paddy was created by filling the headspace of the pots with 2.5 to 3 cm of water. When required to ensure good germination and healthy plants, a fungicide treatment and/or other chemical or physical treatment was applied. The plants were grown for 4-22 days in a greenhouse with an approximate 14 h photoperiod which was maintained at about 29° C. during the day and about 26° C. during the night. Nutrients were added as Osmocote® (19:6:12, N:P:K+minor nutrients) at 2 g per 16-oz. pot and 4 g per 32-oz. pot. […]
(§1) Treatment requirements for each compound or herbicidal component were calculated based upon the rates being tested, the concentration of active ingredient or acid equivalent in the formulation, an application volume of 2 mL per component per pot, and an application area of 86.59 cm^2 per pot.
For formulated compounds, a measured amount was placed in an individual 100 or 200 mL glass vial and was dissolved in a volume of 1.25% (v/v) Agri-Dex® crop oil concentrate to obtain application solutions. […]

ECHOR = test: as above; type: in vivo, Echinochloa oryzoides (Ard.) Fritsch
Protocol: Weed seeds or nutlets of the desired test plant species were planted in puddled soil (mud) prepared by mixing a shredded, non-sterilized mineral soil (50.5 percent silt, 25.5 percent clay, and 24 percent sand, with a pH of about 7.6 and an organic matter content of about 2.9 percent) and water at a 1:1 volumetric ratio. The prepared mud was dispensed in 365 mL aliquots into 16-ounce (oz.) non-perforated plastic pots with a surface area of 86.59 square centimeters (cm^2) leaving a headspace of 3 centimeters (cm) in each pot. Mud was allowed to dry overnight prior to planting or transplanting. Rice seeds were planted in Sun Gro MetroMix® 306 planting mixture, which typically has a pH of about 6.0 to about 6.8 and an organic matter content of about 30 percent, in plastic plug trays. Seedlings at the second or third leaf stage of growth were transplanted into 860 mL of mud contained in 32-oz. non-perforated plastic pots with a surface area of 86.59 cm^2 4 days prior to herbicide application. The paddy was created by filling the headspace of the pots with 2.5 to 3 cm of water. When required to ensure good germination and healthy plants, a fungicide treatment and/or other chemical or physical treatment was applied. The plants were grown for 4-22 days in a greenhouse with an approximate 14 h photoperiod which was maintained at about 29° C. during the day and about 26° C. during the night. Nutrients were added as Osmocote® (19:6:12, N:P:K+minor nutrients) at 2 g per 16-oz. pot and 4 g per 32-oz. pot. Water was added on a regular basis to maintain the paddy flood, and supplemental lighting was provided with overhead metal halide 1000-Watt lamps as necessary. The plants were employed for testing when they reached the first through fourth true leaf stage.
(§2) Treatments consisted of the acid or esters of 4-amino-3-chloro-5-fluoro-6-(4-chloro-2-fluoro-3-methoxy-phenyl)pyridine-2-carboxylic acid (compound A) each formulated as an SC and various herbicidal components alone and in combination. Forms of compound A were applied on an acid equivalent basis.
(§3) Other herbicidal components were applied on an acid equivalent basis and included the acetolactate synthase (ALS)-inhibiting imidazolinone herbicides imazethapyr ammonium salt formulated as Newpath®, imazamox ammonium salt formulated as Beyond®, imazapic ammonium salt formulated as Plateau®, imazapyr isopropylamine salt formulated as Arsenal®, imazamethabenz-methyl (technical material), and imazaquin isopropylamine salt formulated as Scepter®.
as §1
For formulated compounds, a measured amount was placed in an individual 100 or 200 mL glass vial and was dissolved in a volume of 1.25% (v/v) Agri-Dex® crop oil concentrate to obtain application solutions.
For technical grade compounds, a weighed amount was placed in an individual 100 to 200 mL glass vial and was dissolved in a volume of acetone to obtain concentrated stock solutions. […] The concentrated stock solutions obtained were diluted with an equivalent volume of an aqueous mixture containing 2.5% (v/v) crop oil concentrate so that the final application solutions contained 1.25% (v/v) crop oil concentrate.
Applications were made by injecting with a pipetter appropriate amounts of the application solutions, individually and sequentially, into the aqueous layer of the paddy. Control plants were treated in the same manner with the solvent blank. Applications were made so that all treated plant material received the same concentrations of acetone and crop oil concentrate.
The treated plants and control plants were placed in a greenhouse as described above and water was added as needed to maintain a paddy flood. […]

IPOHE = test: Postemergence foliar-applied, direct seeded rice weeds (Example I); type: in vivo, Ipomoea hederacea Jacq.
Excerpt: (§4) Seeds or nutlets of the desired test plant species were planted in a soil matrix prepared by mixing a loam or sandy loam soil (e.g., 28.6 percent silt, 18.8 percent clay, and 52.6 percent sand, with a pH of about 5.8 and an organic matter content of about 1.8 percent) and calcareous grit in an 80 to 20 ratio. The soil matrix was contained in plastic pots with a volume of 1 quart and a surface area of 83.6 cm^2. When required to ensure good germination and healthy plants, a fungicide treatment and/or other chemical or physical treatment was applied. The plants were grown for 8-22 days in a greenhouse with an approximate 14 h photoperiod which was maintained at about 29° C. during the day and 26° C. during the night. Nutrients (Peters Excel® 15-5-15 5-Ca 2-Mg and iron chelate) were applied in the irrigation solution as needed and water was added on a regular basis. Supplemental lighting was provided with overhead metal halide 1000-Watt lamps as necessary. The plants were employed for testing when they reached the first through fourth true leaf stage.
as §2, with “(Compound A),” for “(compound A)”, “SC (suspension concentrate),” for “SC”
as §3, with “include” for “included the”, “(ALS)-inhibiting” for “(ALS)-inhibiting imidazolinone”, “herbicides (imidazolinone chemical class)” for “herbicides”, “material)” for “material),”, “Scepter®/Imagine®.” for “Scepter®.”
(§5) Treatment requirements were calculated based upon the rates being tested, the concentration of active ingredient or acid equivalent in the formulation, and a 12 mL application volume at a rate of 187 L/ha.
(§6) For treatments comprised of formulated compounds, measured amounts of compounds were placed individually in 25 mL glass vials and diluted in a volume of 1.25% (v/v) Agri-Dex® crop oil concentrated to obtain 12× stock solutions. […] Application solutions were prepared by adding an appropriate amount of each stock solution (e.g., 1 mL) and diluted to the appropriate final concentrations with the addition of 10 mL of an aqueous mixture of 1.25% (v/v) crop oil concentrate so that the final spray solutions contained 1.25+/−0.05% (v/v) crop oil concentrate.
(§7) For treatments comprised of technical compounds, weighed amounts can be placed individually in 25 mL glass vials and dissolved in a volume of 97:3 v/v acetone/DMSO to obtain 12× stock solutions. […] Application solutions can be prepared by adding an appropriate amount of each stock solution (e.g., 1 mL) and diluted to the appropriate final concentrations with the addition of 10 mL of an aqueous mixture of 1.5% (v/v) crop oil concentrate so that the final spray solutions contain 1.25% (v/v) crop oil concentrate. When technical materials are used, the concentrated stock solutions can be added to the spray solutions so that the final acetone and DMSO concentrations of the application solutions are 16.2% and 0.5%, respectively.
(§8) For treatments comprised of formulated and technical compounds, weighed amounts of the technical materials were placed individually in 25 mL glass vials and dissolved in a volume of 97:3 v/v acetone/DMSO to obtain 12× stock solutions, and measured amounts of the formulated compounds were placed individually in 25 mL glass vials and diluted in a volume of 1.5% (v/v) crop oil concentrate or water to obtain 12× stock solutions. […]

DIGSA = test: as above; type: in vivo, Digitaria sanguinalis (L.) Scop.; details: Compound A n-Butyl Ester 16 gae/ha
Excerpt: as §4
as §2, with “(Compound A),” for “(compound A)”, “SC (suspension concentrate),” for “SC”
as §3, with “include” for “included the”, “(ALS)-inhibiting” for “(ALS)-inhibiting imidazolinone”, “herbicides (imidazolinone chemical class)” for “herbicides”, “material)” for “material),”, “Scepter®/Imagine®.” for “Scepter®.”
as §5
For treatments comprised of formulated compounds, measured amounts of compounds were placed individually in 25 mL glass vials and diluted in a volume of 1.25% (v/v) Agri-Dex® crop oil concentrated to obtain 12× stock solutions. […]
as §8

SINAR = test: Postemergence herbicidal activity in cereal crops, greenhouse (Example V); type: in vivo, Sinapis arvensis L.; details: Imazamethabenz-methyl 200 gai/ha
Protocol: (§9) Seeds of the desired test plant species were planted in Sun Gro MetroMix® 306 planting mixture, which typically has a pH of 6.0 to 6.8 and an organic matter content of about 30 percent, in plastic pots with a surface area of 103.2 square centimeters (cm^2). When required to ensure good germination and healthy plants, a fungicide treatment and/or other chemical or physical treatment was applied. The plants were grown for 7-36 days in a greenhouse with an approximate 14 hour photoperiod which was maintained at about 18° C. during the day and about 17° C. during the night. Nutrients and water were added on a regular basis and supplemental lighting was provided with overhead metal halide 1000-Watt lamps as necessary. The plants were employed for testing when they reached the second or third true leaf stage.
(§10) Treatments consisted of the benzyl ester of 4-amino-3-chloro-5-fluoro-6-(4-chloro-2-fluoro-3-methoxy-phenyl)pyridine-2-carboxylic acid (Compound A), formulated as an SC, a second cereal herbicide alone and then both in combination.
(§11) Other herbicidal components were applied on an acid equivalent basis and include acetolactate synthase (ALS)-inhibiting herbicides (imidazolinone chemical class) imazamethabenz-methyl formulated as Assert®. Spray solutions of the second cereal herbicide and experimental compound mixtures were prepared by adding the stock solutions to the appropriate amount of dilution solution to form 12 mL spray solution with active ingredients in two- and three-way combinations. […]
(§12) The treated plants and control plants were placed in a greenhouse as described above and watered by sub-irrigation to prevent wash-off of the test compounds. After 20-22 days, the condition of the test plants as compared with that of the control plants was determined visually and scored on a scale of 0 to 100 percent where 0 corresponds to no injury and 100 corresponds to complete kill. […]

CYPIR = test: Postemergence foliar-applied, direct seeded rice weeds (Example I); type: in vivo, Cyperus iria L.
Excerpt: as §4
as §2, with “(Compound A),” for “(compound A)”, “SC (suspension concentrate),” for “SC”
as §3, with “include” for “included the”, “(ALS)-inhibiting” for “(ALS)-inhibiting imidazolinone”, “herbicides (imidazolinone chemical class)” for “herbicides”, “material)” for “material),”, “Scepter®/Imagine®.” for “Scepter®.”
as §5, §6, §7, §8

CHEAL = test: Postemergence herbicidal activity in cereal crops, greenhouse (Example V); type: in vivo, Chenopodium album L.; details: Imazamethabenz-methyl 200 gai/ha
Protocol: as §9, §10, §11, §12

PAPRH = test: as above; type: in vivo, Papaver rhoeas L.; details: Imazamethabenz-methyl 200 gai/ha
Protocol: as §9, §10, §11, §12

CIRAR = test: as above; type: in vivo, Cirsium arvense (L.) Scop.; details: Imazamethabenz-methyl 200 gai/ha
Protocol: as §9, §10, §11, §12

VERPE = test: as above; type: in vivo, Veronica persica Poir.; details: Imazamethabenz-methyl 200 gai/ha
Protocol: as §9, §10, §11, §12

SASKR = test: as above; type: in vivo, Salsola iberica L.; details: Imazamethabenz-methyl 200 gai/ha
Protocol: as §9, §10, §11, §12

CC(C)C1(C)N=C(c2ncccc2C(=O)O)NC1=O (stereo not drawn) [Imazapyr IPA, 2-[4,5-dihydro-4-methyl-4-(1-methylethyl)-5-oxo-1H-imidazol-2-yl]-3-pyridinecarboxylic acid compound with 2-propanamine, reference compound]
Visual Weed Control (%) - 22 DAA CYPRO Obs (CYPRO): 70% | Visual Weed Control (%) - 22 DAA ECHOR Obs (ECHOR; Imazapyr IPA 70 gae/ha): 50% | Visual Weed Control (%) - 22 DAA ECHOR Obs (ECHOR; Imazapyr IPA 140 gae/ha): 85% | Visual Weed Control (%) - 21 DAA IPOHE Obs (IPOHE; Imazapyr IPA 4.38 gae/ha): 50% | Visual Weed Control (%) - 21 DAA IPOHE Obs (IPOHE; Imazapyr IPA 8.75 gae/ha): 40%

CCCCOC(=O)c1nc(-c2ccc(Cl)c(OC)c2F)c(F)c(N)c1Cl [Compound A n-Butyl Ester]
Visual Weed Control (%) - 20 DAA DIGSA Obs (DIGSA): 15%

methyl 2-[4,5-dihydro-4-methyl-4-(1-methylethyl)-5-oxo-1H-imidazol-2-yl]-4-methylbenzoic acid or methyl 2-[4,5-dihydro-4-methyl-4-(1-methylethyl)-5-oxo-1H-imidazol-2-yl]-5-methylbenzoic acid or mixtures thereof [Imazamethabenz-methyl, reference compound]
Visual Weed Control (%) - 21 DAA SINAR Obs (SINAR): 70% | Visual Weed Control (%) - 22 DAA CYPIR Obs (CYPIR; Imazamethabenz-methyl 43.75 gai/ha): 0% | Visual Weed Control (%) - 22 DAA CYPIR Obs (CYPIR; Imazamethabenz-methyl 87.5 gai/ha): 20% | Visual Weed Control (%) - 22 DAA CYPIR Obs (CYPIR; Imazamethabenz-methyl 175 gai/ha): 25% | Visual Weed Control (%) - 21 DAA CHEAL Obs (CHEAL): 0% | Visual Weed Control (%) - 21 DAA PAPRH Obs (PAPRH): 0% | Visual Weed Control (%) - 21 DAA CIRAR Obs (CIRAR): 0% | Visual Weed Control (%) - 21 DAA VERPE Obs (VERPE): 0% | Visual Weed Control (%) - 21 DAA SASKR Obs (SASKR): 70%

CC(C)C1(C)N=C(c2nc3ccccc3cc2C(=O)O)NC1=O (racemic) [Imazaquin IPA, (±)-2-[4,5-dihydro-4-methyl-4-(1-methylethyl)-5-oxo-1H-imidazol-2-yl]-3-quinolinecarboxylic acid with 2-propanamine, reference compound]
Visual Weed Control (%) - 21 DAA IPOHE Obs (IPOHE; Imazaquin IPA 9 gae/ha): 0% | Visual Weed Control (%) - 21 DAA IPOHE Obs (IPOHE; Imazaquin IPA 18 gae/ha): 10% | Visual Weed Control (%) - 21 DAA IPOHE Obs (IPOHE; Imazaquin IPA 36 gae/ha): 0%
